Assay results taken from patent US12365695B2, “Fused ring heteroaryl compounds as RIPK1 inhibitors” (BiSiChem Co., Ltd., priority 2019, dated 2025).

test system: HT-29 cells; experiment: Cell-based necroptosis assay for RIPK1 activity (cell viability, CCK-8); details: HT29 (human colon cancer), Z-VAD-FMK 20 μM, human TNFα 10 ng/ml, SM-164 100 nM, 24 h, read-out: Necroptosis inhibition (IC50)
Procedure: Human colon carcinoma cell HT-29 (KCLB 30038), BV2 mouse microglial cell (cell was a kind gift from Dr. Nak-Yun Sung, Senior researcher at Korea Prime Pharmacy CO., LTD.) and human microglial cell HMC3 (ATCC® CRL-3304™). HT-29 cell was grown in Roswell Park Memorial Institute (RPMI) 1640, BV2 cell was grown in Dulbecco's Modified Eagle's Medium (DMEM) and HMC3 cell was grown in Minimum Essential Media Eagle (MEM) supplemented with 10% fetal bovine serum and 1% mixture of penicillin and streptomycin (Gibco). Cells were maintained at 37° C. in a humidified 5% CO2 atmosphere.
To measure the activity of RIPK1 inhibitor in necroptotic cells, HT-29 cells were treated by control DMSO, human TNFα (Peprotech, Rocky Hill, USA), SM-164 (Biovision, California, USA) and a pan-caspase inhibitor Z-VAD-FMK (Invivogen, San Diego, USA). Cells were pretreated with Z-VAD-FMK 20 μM. After 30 min, human TNFα 10 ng/ml, SM-164 100 nM and RIPK1 Inhibitor (0.0001, 0.001, 0.01, 0.02, 0.05, 0.1, 1, 10 uM) were treated for 24 h. Cell viability was measured by Cell Counting Kit 8 (CCK-8) (Dong-in, Seoul, Korea).

**Q.** `CN1C(=O)[C@@H](NC(=O)n2cc(Cc3ccccc3)cn2)COc2ccnc(F)c21` [Example 32, (S)-4-benzyl-N-(6-fluoro-5-methyl-4-oxo-2,3,4,5-tetrahydropyrido[4,3-b][1,4]oxazepin-3-yl)-1H-pyrazole-1-carboxamide] was tested. Which IC50 did it give?
**A.** < 10 nM

**Q.** `CN1C(=O)[C@@H](NC(=O)n2cc(Cc3cccc(F)c3)cn2)COc2ccnc(F)c21` [Example 33, (S)—N-(6-fluoro-5-methyl-4-oxo-2,3,4,5-tetrahydropyrido[4,3-b][1,4]oxazepin-3-yl)-4-(3-fluorobenzyl)-1H-pyrazole-1-carboxamide] was tested. Which IC50 did it give?
**A.** < 100 nM

**Q.** Which IC50 does the source give for `CN1C(=O)[C@@H](NC(=O)n2cc(Cc3ccccc3)cn2)COc2cc(F)ncc21` [Example 34, (S)-4-benzyl-N-(8-fluoro-5-methyl-4-oxo-2,3,4,5-tetrahydropyrido[4,3-b][1,4]oxazepin-3-yl)-1H-pyrazole-1-carboxamide] here?
**A.** < 10 nM

**Q.** `CN1C(=O)[C@@H](NC(=O)n2cc(Cc3cccc(F)c3)cn2)COc2cc(F)ncc21` [Example 35, (S)—N-(8-fluoro-5-methyl-4-oxo-2,3,4,5-tetrahydropyrido[4,3-b][1,4]oxazepin-3-yl)-4-(3-fluorobenzyl)-1H-pyrazole-1-carboxamide] was tested. Which IC50 did it give?
**A.** < 10 nM

**Q.** `CN1C(=O)[C@@H](NC(=O)n2cc(Cc3ccccc3)cn2)COc2cc(Cl)ncc21` [Example 36, (S)-4-benzyl-N-(8-chloro-5-methyl-4-oxo-2,3,4,5-tetrahydropyrido[4,3-b][1,4]oxazepin-3-yl)-1H-pyrazole-1-carboxamide] was tested. Which IC50 did it give?
**A.** < 10 nM

**Q.** Which IC50 does the source give for `Cc1cc2c(cn1)N(C)C(=O)[C@@H](NC(=O)n1cc(Cc3ccccc3)cn1)CO2` [Example 37, (S)-4-benzyl-N-(5,8-dimethyl-4-oxo-2,3,4,5-tetrahydropyrido[4,3-b][1,4]oxazepin-3-yl)-1H-pyrazole-1-carboxamide] here?
**A.** < 10 nM
